Laboratory results: patent publication US20070123556A1, “Treatment with Sigma Receptor Agonists Post-Stroke” (UNIVERSITY OF SOUTH FLORIDA, priority 2005, published 2007)

Columns and labels:
rats subjected to MCAO [1] = test: Fluoro-Jade infarct area after MCAO; type: in vivo, rat
rats subjected to MCAO [2] = test: GFAP immunostaining, reactive astrocytes after MCAO; type: in vivo, rat; settings: 15 mg/kg DTG from 24 h post-MCAO
Protocol: MCAO surgery was performed as previously reported by Vendrame et al (Vendrame et al., 2004) and originally described by Longa et al (Longa et al., 1989). Laser Doppler Radar (LDR) was used to monitor decrease in blood perfusion which indicates successful occlusion (Moor Instruments Ltd, Devon, England). A 2 mm diameter hole was drilled into the right parietal bone (1 mm posterior and 4 mm lateral from bregma), and a guide screw was set. The LDR probe (MP10M200ST; Moor) was inserted into the guide screw, and the tip of the probe was placed against the pial surface of the brain. […] For MCAO, the embolus (4 cm long, 6 lb test monofilament) was advanced up the internal carotid artery into the middle cerebral artery and tied off at the internal/external carotid junction to produce permanent occlusion. The rat was then sutured, given a 1 ml subcutaneous injection of saline, and allowed to wake in a fresh cage.
Rats were randomly assigned to 1 of 7 groups: (1) MCAO (n=7); (2) MCAO and 15 mg/kg DTG in a 3% lactic acid vehicle (n=11); (3) MCAO and 30 mg/kg DTG (n=16); (4) MCAO and bi-daily injections of 30 mg/kg DTG (n=12); (5) MCAO and 10 mg/kg N-[2-(3,4-dichlorophenyl)ethyl]-N-methyl-2-(dimethylamino)ethylamine (BD 1047) (n=4); (6) MCAO and 10 mg/kg BD1047+30 mg/kg DTG (n=4); (7) sham/MCAO and 15 mg/kg DTG (n=4). […]

Cc1ccccc1NC(=N)Nc1ccccc1C [DTG, 1,3-di-o-tolyguanidine]
decrease of Fluoro-Jade staining relative to untreated MCAO animals (rats subjected to MCAO [1]; 15 mg/kg, 24 hr post stroke): > 85%
infarct area (Fluoro-Jade labeled) (rats subjected to MCAO [1]; cortical/hippocampal region, 15 mg/kg DTG from 24 h post-MCAO (MCAO-only 29±3%)): 2±2%
infarct area (Fluoro-Jade labeled) (rats subjected to MCAO [1]; cortical/striatal region, 15 mg/kg DTG from 24 h post-MCAO (MCAO-only 44±5%)): 6±4%
level of GFAP expression in brain sections (rats subjected to MCAO [2]): marked decrease
